Data published in article PMC9658984, “Acetylation Enhances the Anticancer Activity and Oral Bioavailability of 5-Demethyltangeretin” (International Journal of Molecular Sciences, 2022).
Marks after values point to notes of the source that are not given here.

Experiments:
[1] = test system: PC-3 human prostate cancer cells; experiment: MTT cell viability assay; type: cell-based; conditions: PC-3 cells, 48 h; for IC50: Homo sapiens, MTT
Experimental: PC-3 human prostate cancer cell line was obtained from the Bioresource Collection and Research Center (Hsinchu, Taiwan) and maintained in RPMI medium with 10% FBS and 1% penicillin-streptomycin (PS). The cells were incubated in a 5% CO2 humidified atmosphere at 37 °C. TAN, 5-DTAN, and 5-ATAN were dissolved in DMSO to prepare a 20 mM sample stock, and the final ratio of the DMSO in the treatment medium was 0.1%.
(§1) PC-3 cells were seeded in 96-well plates at a density of 2.5 × 10^3 cells/well and allowed to attach for 24 h. The medium was changed to serum-free RPMI supplemented with 0–20 μM TAN, 5-DTAN, or 5-ATAN, and then incubated for an additional 48 h. The cell viability was determined by the MTT assay and represented as a percentage of the growth of the DMSO-treated cells. FACScan flow cytometer (Becton Dickinson, San Jose, CA, USA) was used to analyze the cell cycle distribution as previously mentioned. Briefly, PC-3 cells treated with various concentrations of 5-DTAN or 5-ATAN for 48 h were trypsinized and gently fixed in 70% ice-cold ethanol and stored at −20 °C for at least 24 h. Then, the cells were washed with cold phosphate-buffered saline (PBS), followed by incubation with 40 μg/mL PI, 0.1 mg/mL RNase A, and 0.1% TritonX-100 in the dark for 30 min at room temperature. Subsequently, the cell cycle distribution of the PI-stained cells was analyzed by a FACScan flow cytometer, and the results were analyzed and calculated using ModFit LT Ver. 3.0 software. The proportion of the sub-G1 phase was quantitated and represented as the apoptotic ratio. Furthermore, a QIAamp DNA mini kit was used to extract DNA from the PC-3 cells treated with 5-DTAN or 5-ATAN for 48 h. Then, the extracted DNA was loaded on a 2% agarose gel containing HealthView^TM Nucleic Acid Stain (Genomics, New Taipei, Taiwan) for electrophoresis at 50 V. The gel was visualized under UV light, and the DNA fragmentation pattern was photographed.

PC-3 cells [2] = experiment: Cell cycle distribution / sub-G1 apoptotic ratio by PI flow cytometry; type: cell-based, human; conditions: 48 h
Experimental: as §1

PC-3 cells [3] = experiment: DNA fragmentation (agarose gel electrophoresis); type: cell-based, human; conditions: 48 h
Experimental: as §1, with “Then, the extracted DNA was loaded on a 2% agarose gel containing HealthView^TM Nucleic Acid Stain (Genomics, New Taipei, Taiwan) for electrophoresis at 50 V. The gel was visualized under UV light, and the DNA fragmentation pattern was photographed.” left out

caspase-3 = experiment: Caspase-3 activity by flow cytometry (CaspGLOW staining); type: cell-based, human; conditions: PC-3 cells, 48 h
Experimental: (§2) The PC-3 cells were treated with the indicated concentration of 5-DTAN or 5-ATAN for 48 h, and then cells were collected and stained by a CaspGLOW^TM Fluorescein Active Caspase-3 Staining Kit (Thermo Fisher Scientific, MA, USA) or 3,3′-dihexyloxacarbocyanine iodide (DiOC6, Merck Millipore, Burlington, MA, USA) for caspase-3 activity and mitochondria membrane potential analysis, respectively. The percentages of caspase-3-activated or DiOC6-positive cells were measured using a flow cytometer and calculated by the CellQuest Pro software.

PC-3 cells [4] = experiment: Mitochondrial membrane potential (DiOC6, flow cytometry); type: cell-based, human; conditions: 2.5-10 µM, 48 h
Experimental: as §2

PC-3 cells [5] = experiment: Colony formation assay; type: cell-based, human; conditions: PC-3 cells, 1.25, 2.5 and 5 µM, 14 days
Experimental: (§3) The colony formation assay was conducted using a procedure modified from the previous report. PC-3 cells were seeded in 6-well plates at a density of 500 cells/well and allowed to attach for 24 h. Subsequently, the cells were treated with various concentrations of 5-ATAN. After 14 days of incubation, the colonies formed were observed by crystal violet staining and photographed. The wound healing assay was performed to assess the effect of 5-ATAN on the migration ability of PC-3 cells. Cells were seeded into a 6 cm dish at a cell density of 1 × 10^6 cells/well. After being cultured at 37 °C for 24 h, a 200 µL yellow pipette tip was used to scrape a gap in the middle of the dish. After washing twice with 1X PBS solution, the medium was replaced with fresh, serum-free medium containing different concentrations of 5-ATAN and incubated for 24 h. Then, the images were taken with an inverted phase contrast microscope at a magnification of 100×, and the Image J software was used for the measurement of the wound width. The percentage of cell migration (% of control) was calculated by measuring the movement of the cells into the scratch area after 24 h of treatment with DMSO or 5-ATAN.

PC-3 cells [6] = experiment: Wound healing cell migration assay; type: cell-based, human; conditions: 24 h
Experimental: as §3

Bcl-xL = experiment: Western blot protein expression, Bcl-xL; type: cell-based, human; conditions: PC-3 cells, 10 µM
Experimental: (§4) Western blot was performed to analyze the protein expression in the PC-3 Cells. The cells were exposed to indicated concentrations of 5-ATAN for various time periods at 37 °C. Then, they were washed with cold PBS and harvested, and a Western blot was conducted as previously described.

Bax = experiment: Western blot protein expression, Bax; type: cell-based, human; conditions: PC-3 cells, 10 µM
Experimental: as §4

Cdc25c = experiment: Western blot protein expression, Cdc25c; type: cell-based, human; conditions: PC-3 cells, 10 µM, time-dependent
Experimental: as §4

Cyclin B1 = experiment: Western blot protein expression, Cyclin B1; type: cell-based, human; conditions: PC-3 cells, 10 µM, time-dependent
Experimental: as §4

Cdc2 = experiment: Western blot protein expression, Cdc2; type: cell-based, human; conditions: PC-3 cells, 10 µM, only after 48 h
Experimental: as §4

MMP-9 = experiment: Western blot protein expression, MMP-9; type: cell-based, human; conditions: PC-3 cells, 5 µM, effect enhanced with treatment time
Experimental: as §4

MMP-2 = experiment: Western blot protein expression, MMP-2; type: cell-based, human; conditions: PC-3 cells, 5 µM, only at 48 h
Experimental: as §4

PC-3 cell xenografts = experiment: Tumor growth inhibition in PC-3 cell xenograft model; type: in vivo, nude mice; conditions: for Tumor growth inhibitory rate, estimated by the means of tumor weight / Tumor weight at the end of the experiment: 10 mg/kg daily oral, nude mice; for Tumor weight at the end of the experiment: day 24, control 2.47 ± 0.43 g; for Effect on tumor volume: 10 mg/kg daily, PC-3 cell xenografts in nude mice
From the text: Male nu/nu mice were obtained from BioLasco Taiwan (Taipei, Taiwan) and maintained on a standard laboratory chow (Purina rodent chow 5001, Purina, St. Louis, MO, USA). At 5 weeks of age, nude mice were used for the xenograft experiment. For the oral bioavailability study, 5-week-old male […] mice were purchased from the National Laboratory Animal Center (Taipei, Taiwan), and the experiment was started after 1 week of acclimation. All mice were housed in an air-conditioned room (temperature: 22 ± 2 °C; humidity: 50–60%) under standard conditions (12 h light/12 h dark cycle). All animal studies were approved by the National Pingtung University of Science and Technology, Institutional Animal Care and Use Committee with protocol numbers NPUST-102-015 and NPUST-105-045.
The 5-week-old nude mice were divided into three groups (n = 6) and administered with the vehicle, 5-DTAN (10 mg/kg), and 5-ATAN (10 mg/kg), respectively. Tumors were established by subcutaneous injections of PC-3 cells (1 × 10^6 cells) into the right flank side of nude mice. The tumor size was measured twice a week with digital calipers, and the tumor volume (V) was calculated by the following formula: V = length × width^2 × 0.5. On day 24, the mice were sacrificed by CO2, and the tumors were harvested and weighed.

[7] = Tissue distribution of 5-DTAN after 7 days oral dosing; type: in vivo; conditions: 50 mg/kg i.g., 7 consecutive days, C57BL/6J mice; except kidney and lung
Experimental: Basically, esterase in the cytosol and plasma rapidly converts 5-ATAN absorbed into cells or into the blood circulation to 5-DTAN by deacetylation. The 5-DTAN in 5-DTAN-treated and 5-ATAN-treated samples can be determined by the HPLC-electrochemical detection (ECD) method. PC-3 cells were seeded in 10 cm dishes (1 × 10^6 cells) and allowed to attach for 24 h. Subsequently, cells were treated with various concentrations of 5-DTAN or 5-ATAN for 12 h, or with 15 µM of 5-DTAN or 5-ATAN for different time periods. Then, the cells were washed with cold PBS, collected, and centrifuged at 300× g for 5 min to remove the supernatant. […] The cytosolic levels of 5-DTAN in the resulting supernatant were analyzed by HPLC with an Ascentis RP-Amide column (L × I.D. 15 cm × 4.6 mm, 3 μm) (Merck KGaA, Darmstadt, Germany) as previously described. […] The samples were reconstituted in methanol and the levels of 5-DTAN were analyzed by HPLC-ECD. Pharmacokinetic parameters, including maximum concentration (Cmax), maximum time (Tmax), half-life (T1/2), and area under the curve (AUC), were calculated and obtained by the Thermo kinetica 5.0 software (Thermo Fisher Scientific, Waltham, MA, USA). […] The supernatant was obtained by centrifuging at 15,130× g for 15 min at 4 °C and then extracted with an equal volume of ethyl acetate and analyzed using the methods described above.

CL1-5 cell xenograft = test system: CL1-5 cell xenograft; design: method as in PMID 26569090; conditions: 20 mg/kg i.p., CL1-5 cell xenograft mice; cited from earlier work
[8] = design: method as in doi:10.1016/j.jff.2008.09.003; conditions: cited from earlier work

IC50 [1] | Compound | Cell Cycle Distribution (%) G0/G1 (PC-3 cells [2]; 2.5 μM) | Cell Cycle Distribution (%) G2/M (PC-3 cells [2]; 2.5 μM) | Cell Cycle Distribution (%) S (PC-3 cells [2]; 2.5 μM) | Cell Cycle Distribution (%) G0/G1 (PC-3 cells [2]; 5 μM) | Cell Cycle Distribution (%) G2/M (PC-3 cells [2]; 5 μM) | Cell Cycle Distribution (%) S (PC-3 cells [2]; 5 μM) | Cell Cycle Distribution (%) G0/G1 (PC-3 cells [2]; 10 μM) | Cell Cycle Distribution (%) G2/M (PC-3 cells [2]; 10 μM) | Cell Cycle Distribution (%) S (PC-3 cells [2]; 10 μM) | Concentration at which DNA ladders were observed (PC-3 cells [3]) | Tumor growth inhibitory rate, estimated by the means of tumor weight (PC-3 cell xenografts) | Tumor weight at the end of the experiment (PC-3 cell xenografts) | Effect on tumor volume (PC-3 cell xenografts) | other results
5.1 µM | COc1ccc(-c2cc(=O)c3c(OC(C)=O)c(OC)c(OC)c(OC)c3o2)cc1 [5-ATAN, 5-acetyloxy-6,7,8,4′-tetramethoxyflavone] | 58.5 ± 1.1 ^A % | 34.7 ± 0.8 ^C % | 6.8 ± 0.3 ^B % | 49.1 ± 0.3 ^B % | 45.7 ± 0.5 ^B % | 5.2 ± 0.3 ^C % | 44.7 ± 0.3 ^C % | 50.3 ± 1.3 ^A % | 4.6 ± 0.5 ^D % | higher than 5 μM | 61.9% | 0.94 ± 0.18 g | significantly suppressed | IC50 fold lower than that of 5-DTAN [1]: 2.3 fold; IC50 fold lower than that of TAN [1]: 3.4 fold; Apoptotic cells (sub-G1) (PC-3 cells [2]; 10 μM): 22.2%; Percentage of caspase-3 activity (caspase-3; 2.5 μM): 7.2 ± 0.6%; Percentage of caspase-3 activity (caspase-3; 5 μM): 9.1 ± 1.7%; Percentage of caspase-3 activity (caspase-3; 10 μM): 18.8 ± 02.4%; Effect on mitochondrial membrane potential (PC-3 cells [4]): dose-dependent decline; Number of colonies (PC-3 cells [5]): dose-dependently decreased; Suppression of migration compared to the control (PC-3 cells [6]; 1.25 µM): 35.5%; Suppression of migration compared to the control (PC-3 cells [6]; 2.5 µM): 48.5%; Suppression of migration compared to the control (PC-3 cells [6]; 5 µM): 73.6%; Expression of Bcl-xL (Bcl-xL): marked decrease; Expression of Bax (Bax): slight increase; Expression of Cdc25c (Cdc25c): dramatically down-regulated; Expression of Cyclin B1 (Cyclin B1): dramatically down-regulated; Expression of Cdc-2 (Cdc2): reduced; Expression of MMP-9 (MMP-9): significantly inhibited; Expression of MMP-2 (MMP-2): obviously inhibited; Levels of 5-DTAN in most tissues vs 5-DTAN-treated mice [7]: significantly higher; Tumor growth inhibitory rate (CL1-5 cell xenograft): 43%
17.2 µM | COc1ccc(-c2cc(=O)c3c(OC)c(OC)c(OC)c(OC)c3o2)cc1 [TAN, 5,6,7,8,4′-pentamethoxyflavone, reference compound] | – | – | – | – | – | – | – | – | – | – | – | – | – | –
11.8 µM | COc1ccc(-c2cc(=O)c3c(O)c(OC)c(OC)c(OC)c3o2)cc1 [5-DTAN, 5-hydroxy-6,7,8,4′-tetramethoxyflavone, reference compound] | 60.2 ± 2.8 ^b % | 31.6 ± 2.7 ^a % | 8.2 ± 0.1% | 59.9 ± 0.4 ^b % | 31.4 ± 0.5 ^a % | 8.7 ± 0.3% | 58.2 ± 2.4 ^b % | 32.6 ± 1.1 ^a % | 8.5 ± 0.9% | 20 µM | 43.7% | 1.39 ± 0.36 g | significantly suppressed | Solubility in biological systems [8]: extremely poor solubility
